The test system of series [1] is L1210. In words: The cytotoxicity (LC99) was evaluated in vitro against L1210 cells obtained from cultured mice. Format: functional, Mus musculus.
The nature of series [2]: Half-life period obtained from linear regression of metabolite concentration in aqueous buffer of pH 7.4 at 37 degrees Celsius in 100 mM phosphate buffer. The series is classed as ADME.
Series [3] is filed under the species Homo sapiens. In words: Half-life period obtained from linear regression of metabolite concentration in Human plasma containing 100 mM phosphate, at pH 7.4. The series is classed as ADME.
The nature of series [4]: Half-life period obtained from linear regression of metabolite concentration in aqueous buffer of pH 7.4 at 37 degrees Celsius in 200 mM phosphate buffer. Format: ADME.

Compound `O=CCCOP(=O)(NCCCl)NCCCl.O=P1(NCCCl)OCCC(O)N1CCCl` returned an LC99 in series [1] of 12.6 µM. Further, the T1/2 in series [2] is on record as 50 min; in series [3], 10 min.
In turn, `O=P(O)(NCCCl)NCCCl` [PALIFOSFAMIDE] gave an LC99 in series [1] of 70 µM. In addition, the T1/2 in series [4] was determined as 61 min.
